Results on two molecules are retold here after patent publication US6534505B2, “Therapeutic polymorphs of a GABA-A alpha-5 inverse agonist and pamoate formulations of the same” (Merck & Co., Inc., priority 1998, dated 2003).

A short description of data set [1]: exposure of the anhydrous form to pure water (XRPD of solids). It counts as physicochemical. As to the method:
To an Eppendorf tube was added 1 mL USP water and 20 mg 3-(5-methylisoxazol-3-yl)-6-(1-methyl-1,2, 3-triazol-4-yl)methyloxy-1,2, 4-triazolo[3,4-a]phthalazine. The resulting suspension was vortexed for 10 seconds, then light protected with aluminium foil and placed on a rotary mixer for 72 hours. The solids were then vacuum filtered off and rinsed with 2xl mL water. Solids were partially wet when first analyzed by XRPD, afterward they were dried by house vacuum for 48 hours before more XRPD analysis.
The XRPD data have been described earlier with the exception of the incompletely converted material from the synthesis in water. […] Conversion may take place more rapidly if solubility is increased by the addition of di-sodium pamoate or by other means. The di-hydrate may also be prepared using a 10% solution of MeCN in water.

Data set [2] relates to rat. The experiment in a line: rat water maze test (cognition enhancement). It counts as in vivo.
For data set [3], the system named is receptor. Briefly: receptor occupancy at the minimum effective dose. The note with it: at the minimum effective dose of 0.3 mg/kg. The data set is classed as in vivo, rat.
Data set [4] deals with T1, human GABAA receptors containing the α5 subunit stably expressed in Ltk cells (Homo sapiens, UniProt P18507+P31644).
T1 construct: expressed in transfected cells; host or cells: Ltk cells (mouse fibroblasts), stably expressing
T1 sequence (P31644 32-462): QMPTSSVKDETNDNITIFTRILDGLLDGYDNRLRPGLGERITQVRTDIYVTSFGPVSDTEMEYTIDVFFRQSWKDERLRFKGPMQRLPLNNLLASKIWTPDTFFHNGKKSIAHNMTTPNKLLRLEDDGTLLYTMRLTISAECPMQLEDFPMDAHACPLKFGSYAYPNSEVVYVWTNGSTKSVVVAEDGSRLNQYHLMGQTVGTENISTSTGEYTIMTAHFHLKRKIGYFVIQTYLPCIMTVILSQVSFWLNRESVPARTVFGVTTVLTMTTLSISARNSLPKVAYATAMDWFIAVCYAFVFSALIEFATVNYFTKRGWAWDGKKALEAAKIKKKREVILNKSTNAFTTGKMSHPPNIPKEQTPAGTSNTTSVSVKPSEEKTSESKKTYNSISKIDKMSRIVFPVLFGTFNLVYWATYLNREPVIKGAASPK
T1 sequence (P18507 40-467 limits assumed): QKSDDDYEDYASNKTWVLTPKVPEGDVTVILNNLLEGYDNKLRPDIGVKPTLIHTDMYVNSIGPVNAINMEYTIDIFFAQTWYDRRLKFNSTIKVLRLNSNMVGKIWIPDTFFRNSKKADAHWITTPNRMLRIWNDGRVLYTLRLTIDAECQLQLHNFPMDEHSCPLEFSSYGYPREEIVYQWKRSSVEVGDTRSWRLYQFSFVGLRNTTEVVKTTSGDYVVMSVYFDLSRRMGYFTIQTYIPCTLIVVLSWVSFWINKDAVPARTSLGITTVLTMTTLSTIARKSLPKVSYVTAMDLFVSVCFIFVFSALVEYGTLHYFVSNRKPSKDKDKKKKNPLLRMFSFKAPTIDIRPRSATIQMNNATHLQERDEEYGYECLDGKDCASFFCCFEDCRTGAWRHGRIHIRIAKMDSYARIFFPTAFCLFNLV
T1 sequence (P28472 26-473 partner): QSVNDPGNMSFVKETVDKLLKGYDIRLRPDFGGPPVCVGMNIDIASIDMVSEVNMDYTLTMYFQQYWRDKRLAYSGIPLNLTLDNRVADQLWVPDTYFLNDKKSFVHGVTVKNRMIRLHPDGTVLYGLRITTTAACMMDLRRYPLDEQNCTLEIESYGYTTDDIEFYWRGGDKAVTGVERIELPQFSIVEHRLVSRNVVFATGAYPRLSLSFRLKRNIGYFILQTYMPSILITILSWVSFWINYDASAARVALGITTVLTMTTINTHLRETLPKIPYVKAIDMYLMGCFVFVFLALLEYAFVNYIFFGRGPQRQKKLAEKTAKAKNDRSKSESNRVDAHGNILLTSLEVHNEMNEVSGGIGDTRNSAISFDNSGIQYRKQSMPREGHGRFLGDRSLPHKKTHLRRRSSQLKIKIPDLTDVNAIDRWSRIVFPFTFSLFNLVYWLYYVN
Briefly: displacement of [3H]-flumazenil ([3H]Ro 15-1788) from the benzodiazepine binding site. The note with it: read-out: Ki value for displacement of [3H]Ro 15-1788 from the α5 subunit of the human GABAA receptor. For orientation: Loss of bound radioactivity is the signal in a displacement assay; it reports binding, not function.

Data set [5] is described as follows: time dependent solubility in 2.5% aqueous di-sodium pamoate solution by HPLC. The data set is classed as physicochemical. On the procedure:
To a stirred, light protected glass vial was added 23.0 mL 2.5% aqueous di-sodium pamoate solution and 42 mg 3-(5-methylisoxazol-3-yl)-6-(1-methyl-1,2,3-triazol-4-yl)methyloxy-1,2,4-triazolo[3,4-a]phthalazine. Aliquots were removed by 3 mL syringe at various time intervals, passed through 0.22 μm Millex-GV low protein binding syringe filters, and diluted to appropriate concentrations with 50/50 MeCN/H2O for HPLC analysis.

Converted amounts (≈) assume the structure as drawn.

The Ki is a dissociation constant, usually derived from enzyme kinetics or from competition with a known ligand. On to `Cc1cc(-c2nnc3c4ccccc4c(OCc4cn(C)nn4)nn23)no1` [L-822, 179, 3-(5-methylisoxazol-3-yl)-6-(1-methyl-1,2,3-triazol-4-yl)methyloxy-1,2,4-triazolo[3,4-a]phthalazine], for which the “solubility in pure water” value in data set [1] is “extreme insolubility”. Moreover, the minimum effective dose in data set [2] is recorded as 0.3 mg/kg. Also, in data set [2] (demonstrated at 0.3 mg/kg and 3 mg/kg), the enhancement of cognition entry was “enhance cognition”. This molecule also displayed a receptor occupancy in data set [3] of 40%. For the same molecule, the Ki in data set [4] was not above 100 nM. Besides, the solubility at 5 minutes in data set [5] (2.5% aqueous di-sodium pamoate solution, aqueous with cosolvent or surfactant or cyclodextrin, thermodynamic from solid, 5 minutes (0.08 h), read-out: Concentration (solubility by HPLC)) is 1890 µg/mL (≈ 5.22 mM). In data set [5] (2.5% aqueous di-sodium pamoate solution, aqueous with cosolvent or surfactant or cyclodextrin, thermodynamic from solid, 90 minutes (1.50 h), read-out: Concentration (solubility by HPLC)), the solubility at 90 minutes came to 1920 µg/mL (≈ 5.3 mM). In data set [5] (2.5% aqueous di-sodium pamoate solution, aqueous with cosolvent or surfactant or cyclodextrin, thermodynamic from solid, 930 minutes (15.5 h), read-out: Concentration (solubility by HPLC)), the solubility at 930 minutes is 1410 µg/mL (≈ 3.89 mM). In data set [5] (2.5% aqueous di-sodium pamoate solution, aqueous with cosolvent or surfactant or cyclodextrin, thermodynamic from solid, 1500 minutes (25.0 h), read-out: Concentration (solubility by HPLC)), the solubility at 1500 minutes was 1290 µg/mL (≈ 3.56 mM). The solubility at 2910 minutes in data set [5] (2.5% aqueous di-sodium pamoate solution, aqueous with cosolvent or surfactant or cyclodextrin, thermodynamic from solid, 2910 minutes (48.5 h), read-out: Concentration (solubility by HPLC)) was determined as 1240 µg/mL (≈ 3.42 mM). Further, the “% of 5 Minute Value” in data set [5] (5 minutes (0.08 h)) stood at 100.0%; in data set [5] (90 minutes (1.50 h)), 101.4%; in data set [5] (930 minutes (15.5 h)) it was 74.5%; in data set [5] (1500 minutes (25.0 h)), 68.0%; in data set [5] (2910 minutes (48.5 h)) it was 65.4%. In addition, in data set [5] (summary of Table 1), the “decrease in solubility over time, % of the original solubility after 5 minutes” value is recorded as approximately 65%.
For orientation: melting point means the temperature, or range, at which the solid turns liquid. In turn, `Cc1cc(-c2nnc3c4ccccc4c(OCc4cccc(Br)n4)nn23)no1` [compound 2, 6-(6-Bromopyridin-2-yl)methyloxy-3-(5-methylisoxazol-3-yl)-1,2,4-triazolo[3,4-a]phthalazine] displayed a melting point of 247.5 to 249 °C.
